Measurements as given in the supplement of paper PMC4862054.
Where “and” joins values, the source holds several entries; their conditions need not be identical. Equal values may be shown once.

Tests used:
Conditions in all cases: incubation time: 72 h
CAL-148 = assay: normalised viability (% of control), CellTiter-Blue; higher = more viable cells (about 100 = DMSO control)
Procedure: (§1)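 DSRT, CellTiter-Blue viability, 72 h incubation. Signal is normalised to DMSO and benzethonium chloride controls. Value is the normalised response at dose 3.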

HCC1599 [1] = assay: as above
Procedure: as §1

CAL-120 [2] = assay: as above
Procedure: as §1

HCC1937 [3] = assay: as above
Procedure: as §1

CAL-85-1 [4] = assay: as above
Procedure: as §1

HDQ-P1 [5] = assay: as above
Procedure: as §1

BT-549 [6] = assay: as above
Procedure: as §1

MDA-MB-468 [7] = assay: as above
Procedure: as §1

MDA-MB-231 [8] = assay: as above
Procedure: as §1

MFM-223 [9] = assay: as above
Procedure: as §1

BT-474 = assay: drug sensitivity score (DSS), CellTiter-Glo (DSS (AUC-based score)); higher = stronger drug effect (viability inhibition or cytotoxicity); extreme values may be limits of the assay
How it was run: (§2)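 The drug sensitivity score reflects the area under a fitted dose-response curve. To obtain it, breast cancer cells in 20 µl suspension were seeded into 384-well plates containing compound at 5 concentrations, 10-fold apart over a compound-specific 10,000-fold range, and incubated 72 h. CellTox Green fluorescence (485/520 nm) was read first and CellTiter-Glo luminescence second, after 10 min at room temperature. Each plate was normalised to 0.1 % DMSO and a positive kill control.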

HCC1599 [10] = assay: as above
How it was run: as §2

CAL-120 [11] = assay: as above
How it was run: as §2

Hs578T = assay: as above
How it was run: as §2

HCC1937 [12] = assay: as above
How it was run: as §2

CAL-85-1 [13] = assay: as above
How it was run: as §2

HDQ-P1 [14] = assay: as above
How it was run: as §2

DU-4475 = assay: as above
How it was run: as §2

BT-549 [15] = assay: as above
How it was run: as §2

MDA-MB-468 [16] = assay: as above
How it was run: as §2

HCC1143 = assay: as above
How it was run: as §2

MDA-MB-231 [17] = assay: as above
How it was run: as §2

MFM-223 [18] = assay: as above
How it was run: as §2

SK-BR-3 = assay: as above
How it was run: as §2

MDA-MB-453 = assay: as above
How it was run: as §2

MCF-10A = assay: as above
How it was run: as §2

CAL-51 = assay: as above
How it was run: as §2

SMILES | normalised viability (CAL-148; 10 nM) | normalised viability (HCC1599 [1]; 100 nM) | normalised viability (CAL-120 [2]; 100 nM) | normalised viability (HCC1937 [3]; 100 nM) | normalised viability (CAL-85-1 [4]; 10 nM) | normalised viability (HDQ-P1 [5]; 10 nM) | normalised viability (BT-549 [6]; 100 nM) | normalised viability (MDA-MB-468 [7]; 100 nM) | normalised viability (MDA-MB-231 [8]; 100 nM) | normalised viability (MFM-223 [9]; 100 nM) | drug sensitivity score (BT-474) | drug sensitivity score (HCC1599 [10]) | drug sensitivity score (CAL-120 [11]) | drug sensitivity score (Hs578T) | drug sensitivity score (HCC1937 [12]) | drug sensitivity score (CAL-85-1 [13]) | drug sensitivity score (HDQ-P1 [14]) | drug sensitivity score (DU-4475) | drug sensitivity score (BT-549 [15]) | drug sensitivity score (MDA-MB-468 [16]) | drug sensitivity score (HCC1143) | drug sensitivity score (MDA-MB-231 [17]) | drug sensitivity score (MFM-223 [18]) | drug sensitivity score (SK-BR-3) | drug sensitivity score (MDA-MB-453) | drug sensitivity score (MCF-10A) | drug sensitivity score (CAL-51) | normalised viability (CAL-148; 1 nM) [%] | normalised viability (HCC1599 [1]; 10 nM) [%] | normalised viability (CAL-120 [2]; 10 nM) [%] | normalised viability (HCC1937 [3]; 10 nM) [%] | normalised viability (CAL-85-1 [4]; 1 nM) [%] | normalised viability (HDQ-P1 [5]; 1 nM) [%] | normalised viability (BT-549 [6]; 10 nM) [%] | normalised viability (MDA-MB-468 [7]; 10 nM) [%] | normalised viability (MDA-MB-231 [8]; 10 nM) [%] | normalised viability (MFM-223 [9]; 10 nM) [%]
CCCCCOC(=O)Nc1nc(=O)n([C@@H]2O[C@H](C)[C@@H](O)[C@H]2O)cc1F [Capecitabine] | 86.9% and 94.2% | 123% and 106% | 85.3% and 95.2% | 86.1% and 80.9% | 96.7% and 98.3% | 106% and 91.4% | 103% and 97.5% | 101% and 111% | 98.2% and 87% | 87.7% and 104% | 0 | 0 | 0 | 0 | 0 | 0 | 0 | 0 | 0 | 0 | 0 | 0 | 0 | 0 | 0 | 0 | 0 |  |  |  |  |  |  |  |  |  | 
CC(C)C[C@H](NC(=O)[C@H](CCc1ccccc1)NC(=O)CN1CCOCC1)C(=O)N[C@@H](Cc1ccccc1)C(=O)N[C@@H](CC(C)C)C(=O)[C@@]1(C)CO1 [Carfilzomib] |  |  |  |  |  |  |  |  |  |  | 21.8 | 10.9 | 19 | 22.9 | 20.6 | 25.2 | 20.7 | 15.4 | 29.5 | 29.9 | 23.5 | 21.4 | 28.1 | 26.9 | 22.7 | 12.2 | 22.1 | 98.5 | 109 | 46.2 | 22.8 | 104 | 109 | 12.5 | 19.5 | 28.1 | 14.8
Nc1nc(Cl)nc2c1ncn2[C@@H]1O[C@H](CO)[C@@H](O)[C@@H]1F [Clofarabine] | 86.8% | 93.7% | 78.8% | 80% | 96.8% | 110% | 85.6% | 91.3% | 64.2% | 89.1% | 5.27 | 9.47 | 4.58 | 1.74 | 0 | 10.6 | 3.38 | 6.22 | 14.3 | 11.7 | 10.8 | 1.71 | 0 | 12.7 | 0 | 5.94 | 17.6 |  |  |  |  |  |  |  |  |  | 
CCN(CC)CCOc1ccc(C(=C(Cl)c2ccccc2)c2ccccc2)cc1 [Clomifene] | 94% | 100% | 94.8% | 100% | 96.2% | 115% | 118% | 97.5% | 101% | 103% | 4.51 | 6.16 | 0 | 4.79 | 5.68 | 3.91 | 0 | 2.97 | 1.96 | 0 | 0 | 5.02 | 2.2 | 2.09 | 5.37 | 1.05 | 0 |  |  |  |  |  |  |  |  |  | 
C[C@@H]1C[C@H]2[C@@H]3CCC4=CC(=O)C=C[C@]4(C)[C@@]3(F)[C@@H](O)C[C@]2(C)[C@@]1(O)C(=O)CO [Dexamethasone] | 97.7% | 117% | 68.5% | 94% | 110% | 113% | 88.6% | 119% | 121% | 93.4% | 0 | 0 | 10.1 | 0 | 0 | 0 | 4.16 | 0 | 0 | 0 | 0 | 0 | 0 | 0 | 4 | 0 | 0 |  |  |  |  |  |  |  |  |  | 
CC(C)C(=O)Nc1ccc([N+](=O)[O-])c(C(F)(F)F)c1 [Flutamide] | 99.3% | 86.8% | 101% | 108% | 100% | 113% | 85.8% | 96.9% | 129% | 90% | 0 | 0 | 0 | 0 | 0 | 0 | 0 | 0 | 0 | 0 | 0 | 0 | 0 | 0 | 0 | 0 | 0.0535 |  |  |  |  |  |  |  |  |  | 
